Species on record: Rattus norvegicus
Assay: Open TG-GATES - Regimen: Single
Type: toxicity, organism-based, Sprague-Dawley
Parameters: regimen Single, gender Male, age 6 weeks
Conditions: in vivo, po, route gavage; for TC / TP / gamma-GTP / ALP / ALT / AST / BUN / CRE / DBIL / GLC / IP / K / LDH / RALB / TBIL / PL: tissue Plasma; for APTT / Bas / Eos / Fbg / Ht / Lym / MCHC / MCV / Mono / PT / Plat / RBC / Ret / WBC: tissue Blood; for KIDNEY_L / KIDNEY_R / KIDNEY_TOTAL: tissue Kidney; for LIVER: tissue Liver
[1] = 0 mg/kg, 24 h, dose level Control

CN(C)CCCN1c2ccccc2CCc2ccccc21 [IMIPRAMINE]
TC [1]: 76 mg/dL
TP [1]: 5.6 g/dL
gamma-GTP [1]: 1 IU/L
TERMINAL_BW (10 mg/kg, 3 h, dose level Low): 203.3 g
APTT (10 mg/kg, 3 h, dose level Low): 16.8 s
Bas (10 mg/kg, 3 h, dose level Low): 0%
Eos (10 mg/kg, 3 h, dose level Low): 1.2%
Fbg (10 mg/kg, 3 h, dose level Low): 264.4 mg/dL
Ht (10 mg/kg, 3 h, dose level Low): 42.9%
Lym (10 mg/kg, 3 h, dose level Low): 78.6%
MCHC (10 mg/kg, 3 h, dose level Low): 31.9%
MCV (10 mg/kg, 3 h, dose level Low): 66.6 fL
Mono (10 mg/kg, 3 h, dose level Low): 2.8%
PT (10 mg/kg, 3 h, dose level Low): 16 s
Plat (10 mg/kg, 3 h, dose level Low): 108.8 x10_4/uL
RBC (10 mg/kg, 3 h, dose level Low): 644 x10_4/ul
Ret (10 mg/kg, 3 h, dose level Low): 8.6%
WBC (10 mg/kg, 3 h, dose level Low): 74.5 x10_2/uL
KIDNEY_L (10 mg/kg, 3 h, dose level Low): 0.9 g
KIDNEY_R (10 mg/kg, 3 h, dose level Low): 0.9 g
KIDNEY_TOTAL (10 mg/kg, 3 h, dose level Low): 1.8 g
LIVER (10 mg/kg, 3 h, dose level Low): 9.1 g
ALP (10 mg/kg, 3 h, dose level Low): 1700 IU/L
ALT (10 mg/kg, 3 h, dose level Low): 46.6 IU/L
AST (10 mg/kg, 3 h, dose level Low): 76.8 IU/L
BUN (10 mg/kg, 3 h, dose level Low): 8.6 mg/dL
CRE (10 mg/kg, 3 h, dose level Low): 0.1 mg/dL
DBIL (10 mg/kg, 3 h, dose level Low): 0.01 mg/dL
GLC (10 mg/kg, 3 h, dose level Low): 187.4 mg/dL
IP (10 mg/kg, 3 h, dose level Low): 10 mg/dL
K (10 mg/kg, 3 h, dose level Low): 4.3 meq/L
LDH (10 mg/kg, 3 h, dose level Low): 73 IU/L
RALB (10 mg/kg, 3 h, dose level Low): 2.6 g/dL
TBIL (10 mg/kg, 3 h, dose level Low): 0.066 mg/dL
TC (10 mg/kg, 3 h, dose level Low): 80.4 mg/dL
TP (10 mg/kg, 3 h, dose level Low): 5.5 g/dL
gamma-GTP (10 mg/kg, 3 h, dose level Low): 1.2 IU/L
TERMINAL_BW (10 mg/kg, 6 h, dose level Low): 199.7 g
APTT (10 mg/kg, 6 h, dose level Low): 16 s
Bas (10 mg/kg, 6 h, dose level Low): 0.2%
Eos (10 mg/kg, 6 h, dose level Low): 0.8%
Fbg (10 mg/kg, 6 h, dose level Low): 276.2 mg/dL
Ht (10 mg/kg, 6 h, dose level Low): 42.9%
Lym (10 mg/kg, 6 h, dose level Low): 75%
MCHC (10 mg/kg, 6 h, dose level Low): 32.3%
MCV (10 mg/kg, 6 h, dose level Low): 66.5 fL
Mono (10 mg/kg, 6 h, dose level Low): 2.2%
PT (10 mg/kg, 6 h, dose level Low): 15.8 s
Plat (10 mg/kg, 6 h, dose level Low): 108.4 x10_4/uL
RBC (10 mg/kg, 6 h, dose level Low): 645.6 x10_4/ul
Ret (10 mg/kg, 6 h, dose level Low): 8.3%
WBC (10 mg/kg, 6 h, dose level Low): 92.4 x10_2/uL
KIDNEY_L (10 mg/kg, 6 h, dose level Low): 0.9 g
KIDNEY_R (10 mg/kg, 6 h, dose level Low): 0.9 g
KIDNEY_TOTAL (10 mg/kg, 6 h, dose level Low): 1.9 g
ALP (10 mg/kg, 6 h, dose level Low): 1517 IU/L
ALT (10 mg/kg, 6 h, dose level Low): 54.4 IU/L
AST (10 mg/kg, 6 h, dose level Low): 79.4 IU/L
BUN (10 mg/kg, 6 h, dose level Low): 8.2 mg/dL
CRE (10 mg/kg, 6 h, dose level Low): 0.2 mg/dL
GLC (10 mg/kg, 6 h, dose level Low): 183 mg/dL
IP (10 mg/kg, 6 h, dose level Low): 9.6 mg/dL
K (10 mg/kg, 6 h, dose level Low): 4.2 meq/L
LDH (10 mg/kg, 6 h, dose level Low): 139.2 IU/L
PL (10 mg/kg, 6 h, dose level Low): 137.6 mg/dL
RALB (10 mg/kg, 6 h, dose level Low): 2.5 g/dL
TBIL (10 mg/kg, 6 h, dose level Low): 0.064 mg/dL
TC (10 mg/kg, 6 h, dose level Low): 74.8 mg/dL
TP (10 mg/kg, 6 h, dose level Low): 5.3 g/dL
gamma-GTP (10 mg/kg, 6 h, dose level Low): 1 IU/L
TERMINAL_BW (10 mg/kg, 9 h, dose level Low): 198.9 g
APTT (10 mg/kg, 9 h, dose level Low): 16.4 s
Bas (10 mg/kg, 9 h, dose level Low): 0.2%
Eos (10 mg/kg, 9 h, dose level Low): 1%
Fbg (10 mg/kg, 9 h, dose level Low): 294.4 mg/dL
Ht (10 mg/kg, 9 h, dose level Low): 42.3%
Lym (10 mg/kg, 9 h, dose level Low): 75.6%
MCHC (10 mg/kg, 9 h, dose level Low): 32.5%
MCV (10 mg/kg, 9 h, dose level Low): 64.4 fL
Mono (10 mg/kg, 9 h, dose level Low): 2.2%
PT (10 mg/kg, 9 h, dose level Low): 15.9 s
Plat (10 mg/kg, 9 h, dose level Low): 114.9 x10_4/uL
RBC (10 mg/kg, 9 h, dose level Low): 658 x10_4/ul
Ret (10 mg/kg, 9 h, dose level Low): 7.7%
WBC (10 mg/kg, 9 h, dose level Low): 71.4 x10_2/uL
KIDNEY_L (10 mg/kg, 9 h, dose level Low): 0.9 g
KIDNEY_R (10 mg/kg, 9 h, dose level Low): 0.9 g
KIDNEY_TOTAL (10 mg/kg, 9 h, dose level Low): 1.8 g
LIVER (10 mg/kg, 9 h, dose level Low): 8.2 g
ALP (10 mg/kg, 9 h, dose level Low): 1463.6 IU/L
ALT (10 mg/kg, 9 h, dose level Low): 37.6 IU/L
AST (10 mg/kg, 9 h, dose level Low): 66.2 IU/L
BUN (10 mg/kg, 9 h, dose level Low): 7.4 mg/dL
CRE (10 mg/kg, 9 h, dose level Low): 0.1 mg/dL
DBIL (10 mg/kg, 9 h, dose level Low): 0.01 mg/dL
GLC (10 mg/kg, 9 h, dose level Low): 181 mg/dL
IP (10 mg/kg, 9 h, dose level Low): 9.9 mg/dL
K (10 mg/kg, 9 h, dose level Low): 4.1 meq/L
LDH (10 mg/kg, 9 h, dose level Low): 67.6 IU/L
PL (10 mg/kg, 9 h, dose level Low): 137.4 mg/dL
RALB (10 mg/kg, 9 h, dose level Low): 2.6 g/dL
TBIL (10 mg/kg, 9 h, dose level Low): 0.066 mg/dL
TC (10 mg/kg, 9 h, dose level Low): 78.4 mg/dL
TP (10 mg/kg, 9 h, dose level Low): 5.5 g/dL
gamma-GTP (10 mg/kg, 9 h, dose level Low): 1.2 IU/L
TERMINAL_BW (10 mg/kg, 24 h, dose level Low): 217.3 g
APTT (10 mg/kg, 24 h, dose level Low): 16.2 s
Bas (10 mg/kg, 24 h, dose level Low): 0%
Eos (10 mg/kg, 24 h, dose level Low): 0.4%
Fbg (10 mg/kg, 24 h, dose level Low): 254 mg/dL
Ht (10 mg/kg, 24 h, dose level Low): 40.6%
Lym (10 mg/kg, 24 h, dose level Low): 81%
MCHC (10 mg/kg, 24 h, dose level Low): 32.3%
MCV (10 mg/kg, 24 h, dose level Low): 65.1 fL
Mono (10 mg/kg, 24 h, dose level Low): 2.4%
PT (10 mg/kg, 24 h, dose level Low): 16.2 s
Plat (10 mg/kg, 24 h, dose level Low): 104.4 x10_4/uL
RBC (10 mg/kg, 24 h, dose level Low): 625.4 x10_4/ul
Ret (10 mg/kg, 24 h, dose level Low): 7.4%
WBC (10 mg/kg, 24 h, dose level Low): 76.3 x10_2/uL
KIDNEY_L (10 mg/kg, 24 h, dose level Low): 0.9 g
KIDNEY_R (10 mg/kg, 24 h, dose level Low): 0.9 g
KIDNEY_TOTAL (10 mg/kg, 24 h, dose level Low): 1.8 g
LIVER (10 mg/kg, 24 h, dose level Low): 9.7 g
ALP (10 mg/kg, 24 h, dose level Low): 1443 IU/L
ALT (10 mg/kg, 24 h, dose level Low): 48.6 IU/L
AST (10 mg/kg, 24 h, dose level Low): 80.8 IU/L
BUN (10 mg/kg, 24 h, dose level Low): 15.6 mg/dL
CRE (10 mg/kg, 24 h, dose level Low): 0.2 mg/dL
GLC (10 mg/kg, 24 h, dose level Low): 187.2 mg/dL
IP (10 mg/kg, 24 h, dose level Low): 7.6 mg/dL
K (10 mg/kg, 24 h, dose level Low): 4 meq/L
LDH (10 mg/kg, 24 h, dose level Low): 73.2 IU/L
RALB (10 mg/kg, 24 h, dose level Low): 2.5 g/dL
TBIL (10 mg/kg, 24 h, dose level Low): 0.058 mg/dL
TC (10 mg/kg, 24 h, dose level Low): 78 mg/dL
